Data on 104 compounds can be found in PubChem BioAssay AID1996.

In brackets after ≈: the same amount, converted by molar mass.

For the data set the following is noted: buffer; pH 7.4; 200.0 µM.
The compound `CC(=O)N1CCN(c2nc3ccc([N+](=O)[O-])cc3s2)CC1` registered a kinetic solubility of 31.7 µg/mL (≈ 103 µM).

`CCS(=O)(=O)N1CCC(N2CCN(c3ccccc3)CC2)CC1` yielded a kinetic solubility of 49.6 µg/mL (≈ 147 µM).

As for `O=C(Nc1ccccc1N1CCCC1)C1=COCCO1`, the solubility (kinetic) was > 41.1 µg/mL. The same measure for `CCOC(=O)C1=C(C)N(C)C(C)=C(C(=O)OCC)C1c1ccsc1`: 2 µg/mL (≈ 5.72 µM); for `Cc1nc(N2CCNCC2)c2c3c(sc2n1)CCCC3`: 26.7 µg/mL (≈ 92.6 µM); for `Cc1cnc(C(=O)OCc2cc(=O)n3c(C)cccc3n2)cn1`: > 46.5 µg/mL. On to `CC(NC(=O)CN(C)Cc1cccc(F)c1)c1ccccc1` (centres undefined), for which the kinetic solubility was > 45.1 µg/mL. Under `O=S(=O)(NCCN1CCCC1)c1ccc(C(F)(F)F)cc1` stands > 48.4 µg/mL; under `O=C(O)CC(C(=O)Nc1ccc(F)cc1)C1CCCO1` (centres undefined), > 42.2 µg/mL; under `CCOC(=O)C(=CNc1ccc2c(c1)CCN2C(C)=O)C(=O)OCC`, 9.9 µg/mL (≈ 28.6 µM). Under `O=C(CCCc1ccccc1)Nc1ccccn1` stands > 36 µg/mL. Consider `CCN1CCCC1CNC(=O)C(=O)NC(C)c1ccccc1` (centres undefined), for which the kinetic solubility is > 45.5 µg/mL. Compound `Cc1cc(C)nc(NCc2ccc(Cl)cc2)n1.Cl` showed a solubility (kinetic) of 5.4 µg/mL. The same measure for `CSCc1cc(N(C)c2ccccc2)nc(-c2ccccn2)n1`: 42.8 µg/mL (≈ 133 µM); for `CCc1cc(=O)[nH]c(SCc2cccnc2)n1`: > 37.1 µg/mL.

The compound `O=C(Nc1cc2c3c(c1)CC(=O)N3CCC2)c1ccco1` came in with a solubility (kinetic) of 39.6 µg/mL (≈ 140 µM). The same measure for `CC(CC(=O)O)CC(=O)Nc1nncs1` (centres undefined): > 34.4 µg/mL; for `COc1ccc(S(=O)(=O)N2CCSCC2)cc1`: > 41 µg/mL; for `COCCCn1c(=O)c2sccc2n(Cc2ccc(C)cc2)c1=O`: < 0.4 µg/mL. Under `CCCCOc1ccc(C(=O)NCCc2cccs2)cc1` stands 1.3 µg/mL (≈ 4.28 µM); under `Cc1ccc(NC(=O)c2noc3c2CCC3)cc1C`, 4.7 µg/mL (≈ 18.3 µM). Under `O=C(Nc1cccc(Cl)c1Cl)C1CCCC1` stands 3.9 µg/mL (≈ 15.1 µM). With `CCCCNC(=O)C1CC(=O)N(CCc2ccccc2)C1` (centres undefined), the kinetic solubility is > 43.3 µg/mL. For `O=C(CSCc1ccccc1)Nc1ccc(F)cc1F`, the solubility (kinetic) worked out at 41 µg/mL (≈ 140 µM).

The compound `N#Cc1c2n(c3c(N)ncnc13)CCCCC2` yielded a solubility (kinetic) of 33.6 µg/mL (≈ 148 µM). Under `CN(c1ccccc1)S(=O)(=O)c1ccc(C(=O)N2CCN(c3ccccc3Cl)CC2)cc1` stands 6.8 µg/mL (≈ 14.5 µM); under `O=C(c1cccc(C(F)(F)F)c1)N1CCN(CCc2ccccc2)CC1`, > 54.4 µg/mL; under `O=C(C1CC1)N1c2ccccc2Sc2ccccc21`, 7.1 µg/mL (≈ 26.6 µM). Under `COc1ccc(NC(=O)NCCCCc2ccccc2)cc1OC` stands 0.6 µg/mL (≈ 1.83 µM). Under `CC(=O)c1c(C)[nH]c(C(=O)Nc2cccc(C(F)(F)F)c2)c1C` stands 2 µg/mL (≈ 6.17 µM); under `Cc1ccc(OCCn2c(=O)oc3ccc(C)cc32)cc1`, < 0.6 µg/mL.

In turn, `COc1ccccc1NC(=O)N1CCN(C)CC1` showed a solubility (kinetic) of 30.8 µg/mL (≈ 124 µM).

`CCC(=O)c1ccc(OCC(=O)Nc2ccc(S(=O)(=O)Nc3cc(C)nc(C)n3)cc2)cc1`: the kinetic solubility was > 70.3 µg/mL. The same measure for `Cn1cnnc1SCC(=O)NC1CC1`: > 31.8 µg/mL; for `CCNC(=S)N1CCC(n2cnc3ccccc32)CC1`: > 43.3 µg/mL; for `COc1ccc(CNC(=O)c2cncc(Br)c2)cc1`: 45.8 µg/mL (≈ 143 µM). The same measure for `CCc1nccn1S(=O)(=O)c1ccccc1[N+](=O)[O-]`: > 42.2 µg/mL; for `CSc1ncc(Cl)c(C(=O)Nc2c(C)cccc2C)n1`: 2.3 µg/mL (≈ 7.47 µM); for `O=c1c2ccccc2ncn1-c1ccc([N+](=O)[O-])cc1Cl`: 17 µg/mL (≈ 56.3 µM). The same measure for `NC1=NC(=O)C(Cc2ccc(OC(F)(F)F)cc2)S1` (centres undefined): > 43.5 µg/mL; for `COc1ccc(S(=O)(=O)N2CCc3ccccc32)cc1[N+](=O)[O-]`: 6.4 µg/mL (≈ 19.1 µM). Consider `Cc1ccc(C(=O)NCC(=O)Nc2cc(C)ccn2)cc1`, for which the solubility (kinetic) was > 42.5 µg/mL.

On to `CN1C(=O)/C(=C\c2ccc(N(C)C)cc2)OC1=S`, for which the solubility (kinetic) was < 0.3 µg/mL. The same measure for `OCC1(Cc2ccccc2F)CCCN(CCc2ccccc2)C1` (centres undefined): 40.7 µg/mL (≈ 124 µM); for `COc1ccc(NC(=O)C2C3CC/C=C\CCC32)cc1` (centres undefined): < 0.6 µg/mL. Under `CC(=O)Nc1ccc(S(=O)(=O)N[C@@H](C)C(=O)OCC(=O)c2ccc[nH]2)cc1` stands 42.2 µg/mL (≈ 107 µM); under `CC1CCc2c(sc(NC(=O)c3ccco3)c2C(=O)O)C1` (centres undefined), > 45.8 µg/mL; under `Cc1nnc(SC(C)C(=O)NC2CCCCC2C)s1` (centres undefined), > 44.9 µg/mL. Turning to `COc1ccc(-c2cc(C(=O)Nc3cc(C)on3)no2)cc1OC`, the solubility (kinetic) was < 0.2 µg/mL.

For the compound `CC(=O)Nc1ccc(S(=O)(=O)NCC(=O)OCC(=O)c2ccc[nH]2)cc1`, the solubility (kinetic) was > 56.9 µg/mL.

`Cl.O=C(COc1ccc(Br)cc1)OCCN1CCCCC1`: the solubility (kinetic) is > 56.8 µg/mL. The same measure for `Cc1ccc([N+](=O)[O-])cc1NC(=O)/C=C/C(=O)O`: > 37.5 µg/mL; for `CCN(CC)c1nc(-c2ccccc2)nc2ccccc12.Cl`: 0.5 µg/mL; for `C[C@H](NC(=O)c1ccccc1)C(=O)N1CCN(c2ccccc2)CC1`: > 50.6 µg/mL. The same measure for `Nc1ccc(-c2nc3ccccc3s2)cn1`: 17.7 µg/mL (≈ 77.9 µM); for `O=S(=O)(c1ccc(F)cc1)N1CCc2ccccc21`: 18.9 µg/mL (≈ 68.2 µM). The same measure for `CCO/N=C/C1=C(O)C(C(=O)OC)C(C)(C)CC1=O` (centres undefined): > 40.4 µg/mL; for `O=C(CN1C(=O)c2ccc([N+](=O)[O-])cc2C1=O)NCc1ccc(C(=O)O)cc1`: > 57.5 µg/mL.

Take `Cc1ccccc1NC(=S)N(CCN(C)C)C(C)c1cccnc1` (centres undefined): the kinetic solubility was > 51.4 µg/mL. The same measure for `COc1cc2c(cc1OC)CN(c1ccc(C(F)(F)F)cn1)CC2`: 34.9 µg/mL (≈ 103 µM); for `N=C1S/C(=C\c2ccco2)C(=O)N1c1nccs1`: 17.9 µg/mL (≈ 64.5 µM). The same measure for `Cc1csc(/N=C/N(C)C)c1C#N`: 28 µg/mL (≈ 145 µM). Under `Cc1ccc2nc(Cn3cc(C(F)(F)F)ccc3=O)cc(=O)n2c1` stands 47.4 µg/mL (≈ 141 µM); under `COc1ccc(-n2c(=S)[nH]c3sc(-c4ccccc4)cc3c2=O)c(OC)c1`, 1.7 µg/mL (≈ 4.29 µM); under `NS(=O)(=O)c1cccc(NC(=O)Nc2ccccc2)c1`, > 43.7 µg/mL.

In turn, `N#Cc1ccsc1NC(=O)c1cccc([N+](=O)[O-])c1` returned a solubility (kinetic) of 4.2 µg/mL (≈ 15.4 µM). Under `Cc1ccc(S(=O)(=O)NC(=O)NC(C)c2ccc(F)cc2)cc1` (centres undefined) stands > 50.5 µg/mL; under `Cn1c(Cc2ccccc2)nnc1SCC(=O)Nc1ccccc1`, > 50.8 µg/mL; under `COC(=O)c1ccccc1NS(=O)(=O)c1ccc(Cl)nc1`, 48 µg/mL (≈ 147 µM). In the case of `O=C(OCC(=O)N1CCCCCC1)c1ccc(Cl)nc1`, the solubility (kinetic) is > 44.5 µg/mL. Under `CC(=O)N1CCOCCOCCOCC1` stands > 32.6 µg/mL. Under `COc1ccc(-n2c(C)c(C)c3c(NCCCN(C)C)ncnc32)cc1` stands > 53 µg/mL; under `Cc1ccc(OCCNC(=O)CNC(=O)c2ccc(Cl)c([N+](=O)[O-])c2)cc1`, 12.6 µg/mL (≈ 32.2 µM); under `CCCC(C)NC(=O)CSc1nnc2ccccn12` (centres undefined), > 41.8 µg/mL. Under `CCOC(=O)CN1C(=O)C(=O)N(Cc2c(Cl)cccc2Cl)C1=O` stands 30.6 µg/mL (≈ 85.2 µM); under `CC(C)N(Cc1ccccc1)C(=O)COC(=O)C1CCCCC1`, 46.6 µg/mL (≈ 147 µM). As to `CC(=O)C(Sc1ncnc2sc3c(c12)CCCC3)C(C)=O`, the kinetic solubility came out at 38.6 µg/mL (≈ 120 µM). Under `CC(=O)Oc1ccc(C(c2ccc(OC(C)=O)cc2)c2ccccn2)cc1` stands > 54.2 µg/mL; under `Cc1cccc(/C=C/c2nc3ccccc3c(=O)[nH]2)c1`, 0.6 µg/mL (≈ 2.29 µM); under `CN(C)CCOC(=O)c1ccc2[nH]c3c(c2c1)CSCC3.Cl`, 49.2 µg/mL. The same measure for `O=S(=O)(c1ccc2[nH]ccc2c1)N1CCCCCC1`: > 41.8 µg/mL; for `Cc1ccc(/C(=N/Nc2ncnc3ccccc23)C(=O)O)cc1`: > 45.9 µg/mL; for `O=C(NCc1ccccc1Cl)c1cc(C(=O)C2CC2)c[nH]1`: < 0.3 µg/mL. `Cn1cnnc1SCC(=O)NC1CCCc2ccccc21` (centres undefined): the kinetic solubility was > 45.4 µg/mL. The same measure for `CCOC(=O)C(=CNc1ccc(S(N)(=O)=O)cc1)C(=O)OCC`: 37.8 µg/mL (≈ 110 µM). The same measure for `CCOc1cc(C(=O)Nc2cccnc2)cc(OCC)c1OCC`: 47.3 µg/mL (≈ 143 µM); for `CN1CCN(c2nc(-c3ccccc3)ncc2S(C)(=O)=O)CC1`: > 49.9 µg/mL; for `Cc1ccc(C(C)NC(=S)NC2CCCCC2)cc1C` (centres undefined): 7.8 µg/mL (≈ 26.9 µM).

For the compound `O=C(COc1ccccc1F)Nc1ccc2c(c1)CCC2`, the kinetic solubility amounted to 4 µg/mL (≈ 14 µM). Compared with the last compound, the solubility kinetic is about 1.9-fold lower. Under `CCOC1OC(=O)C(Cl)=C1Nc1ccc(C)cc1` (centres undefined) stands > 40.2 µg/mL; under `Cc1nccc(-c2cccc(NC(=O)c3ccccc3Cl)c2)n1`, 35 µg/mL (≈ 108 µM); under `CCc1ccccc1NC(=O)NCc1ccccn1`, > 38.3 µg/mL. The same measure for `Cc1cc2ccccn2c1C(=O)c1ccccc1Br`: 8.1 µg/mL (≈ 25.8 µM); for `CCCN1C(=O)CC(Sc2ncccc2C(=O)O)C1=O` (centres undefined): 42.5 µg/mL (≈ 144 µM); for `O=C(CCN1C(=O)c2ccccc2C1=O)NCc1ccc(F)cc1`: > 48.9 µg/mL. Under `Cc1ccnc(NC(=O)CNC(=O)c2cccs2)c1` stands > 41.3 µg/mL; under `O=C(Nc1ccc([N+](=O)[O-])c(NC(=O)c2cccnc2)c1)c1cccnc1`, 3.3 µg/mL (≈ 9.08 µM). Take `CC1CCCN(c2c([N+](=O)[O-])cc(C(=O)O)cc2[N+](=O)[O-])C1` (centres undefined): the solubility (kinetic) was found to be 46.2 µg/mL (≈ 149 µM).

As for `NC(=O)[C@@H]1CCCN1Cc1nc(Cc2ccccc2F)no1`, the solubility (kinetic) is > 45.6 µg/mL. In turn, `CCN(c1ccc(NC(=O)CSc2ccc3c(c2)OCCO3)cc1)C(C)C` gave a solubility (kinetic) of 4.4 µg/mL (≈ 11.4 µM). Under `CC1CN(S(=O)(=O)c2cc(C(=O)NCCCN3CCCC3=O)ccc2Cl)CC(C)O1` (centres undefined) stands > 68.7 µg/mL.

Take `Cc1ccc(CC2CC(=O)N(CCc3ccccc3)C2=O)cc1` (centres undefined): the kinetic solubility is 2.9 µg/mL (≈ 9.43 µM). `Cc1cc(Cl)ccc1NC(=O)CN1C(=O)NC2(CCCC2)C1=O`: the solubility (kinetic) is > 50.4 µg/mL. The same measure for `N#CCCN(Cc1ccccc1)C(=O)Nc1ccccc1`: > 41.9 µg/mL.
